# Test results from patent publication US8980838B2, “Cyclized peptidomimetic small molecule inhibitors of the WDR5 and MLL1 interaction” (The Regents of the University of Michigan, priority 2011, dated 2015).
# *1 amine or outer side, *2 acyl side, *3 side chain or, on linkers, in order; H or OH if unused. Where a SMILES comes first, the peptide text is derived from it. Bridges are numbered along the chain shown (N, C = ends). [ ]: non-standard residue; d: D form. The star is where a group is joined. dαMeLys(Me) = CN(CCCC[C@@](C)(N[*:1])C(=O)[*:2])[*:3]; dPhg(4-F) = N[C@@H](C(=O)O)c1ccc(F)cc1; dPhg = N[C@@H](C(=O)O)c1ccccc1; Isobutyryl = CC(C)C(=O)*; Abu = CC[C@H](N)C(=O)O
# Target: T1, WDR5 (Homo sapiens, UniProt P61964)
# T1 construct: N-terminal His-tagged WDR5Δ23 (residues 24-334) was expressed from the pET28-MHL vector; His tag (N); made in house; host or cells: Rosetta2(DE3) pLysS cells (E. coli)
# Test: fluorescence-polarization based competitive binding assay
# Conditions: not given
# Procedure: Binding Assay Protein Expression and Purification for the Binding Assay
# Cells were grown to OD600=0.4-0.6 in 4 L 2×TY at 30° C., induced with 0.1 mM IPTG at 16° C. for 16 hours and harvested in 20 mM HEPES pH 7.5, 500 mM KCl, 10% glycerol, 0.1 mg/ml PMSF, 0.05% NP40. Cells were lysed by addition of 0.2 mg/ml hen egg white lysozyme followed by sonication and clarification by centrifuging for 30 minutes at 15,000 rpm. The resin was washed 3 times for 10 minutes with 40 ml lysis buffer. His-WDR5Δ23 was eluted from the resin by 3×15 minute elutions with 20 mM HEPES pH 7.5, 100 mM KCl, 10% glycerol, 250 mM imidazole pH 7.5. […] Concentrated protein was aliquoted and samples were frozen on dry ice and stored at −80° C.
# The IC50 value of the inhibitors were calculated using GraphPad Prism 4 software.
# Competitive Binding Experiments
# The binding affinities of the synthetic peptides shown in the study were measured using this competitive binding assay described earlier (31). A pre-incubated complex solution of WDR5Δ23 and the tracer in 120 μl assay buffer were added to dilutions of the test compound in 5 μl DMSO, giving final concentrations of WDR5Δ23 and the tracer of 4 nM and 0.6 nM, respectively. […] The plates were incubated with shaking at room temperature. The mP values were measured after five hours of incubation and Ki values were calculated using the equation described previously (32).
row,SMILES,IC50 [nM]
1,CC[C@@H]1NC(=O)[C@H](CCCNC(=N)N)NC(=O)[C@](C)(NC(=O)C(C)C)CCCCN(C)C(=O)[C@@H](c2ccc(Cl)cc2)NC1=O [Compound 29f],< 10
2,CC[C@@H]1NC(=O)[C@H](CCCNC(=N)N)NC(=O)[C@](C)(NC(=O)C(C)C)CCCCN(C)C(=O)[C@@H](c2ccccc2)NC1=O [Compound 29d] (Isobutyryl-[dαMeLys(Me)]R[Abu][dPhg]; lactam 1-C),< 10
3,CC[C@@H]1NC(=O)[C@H](CCCNC(=N)N)NC(=O)[C@](C)(NC(=O)C(C)C)CCCCN(C)C(=O)[C@@H](c2ccc(F)cc2)NC1=O [Compound 29e] (Isobutyryl-[dαMeLys(Me)]R[Abu][dPhg(4-F)]; lactam 1-C),< 10

# Same assay, conditions: FP competitive binding; WDR5Δ23 4 nM, tracer 0.6 nM, five hours incubation; Table 2 series; read-out: IC50, binding affinity to WDR5
row,SMILES,IC50 [nM]
1,CC[C@@H]1NC(=O)[C@H](CCCNC(=N)N)NC(=O)[C@](C)(NC(=O)C(C)C)CCCCCCNC1=O [Compound 19b],< 10
2,CC[C@@H]1NC(=O)[C@H](CCCNC(=N)N)NC(=O)[C@](C)(NC(=O)C(C)C)CCCCCCCCNC1=O [Compound 19c],< 10
3,CC[C@@H]1NC(=O)[C@H](CCCNC(=N)N)NC(=O)[C@](C)(NC(=O)C(C)C)CCCCCNC1=O [Compound 19a],< 1000

# Next, values leading:
row,IC50 [nM],SMILES
1,< 10,CC[C@@H]1NC(=O)[C@H](CCCNC(=N)N)NC(=O)[C@](C)(NC(=O)C(C)C)CCCCCCNC(=O)[C@H](c2ccccc2)NC1=O [Compound 29c]
2,< 10,CC[C@@H]1NC(=O)[C@H](CCCNC(=N)N)NC(=O)[C@](C)(NC(=O)C(C)C)CCCCCCNC(=O)[C@@H](c2ccccc2)NC1=O [Compound 29b]

# Same assay, conditions: FP competitive binding; WDR5Δ23 4 nM, tracer 0.6 nM, five hours incubation; Table 3 series; read-out: IC50, binding affinity to WDR5
row,IC50 [nM],SMILES
1,< 1000,CC[C@@H]1NC(=O)[C@H](CCCNC(=N)N)NC(=O)[C@@](C)(NC(=O)C(C)C)CCCCCCNC(=O)[C@H](c2ccccc2)NC1=O [Compound 36]
2,< 1000,CC[C@@H]1NC(=O)[C@H](CCCNC(=N)N)NC(=O)[C@@](C)(NC(=O)C(C)C)CCCCCCCCNC1=O [Compound 34d]
3,< 1000,CC[C@@H]1NC(=O)[C@H](CCCNC(=N)N)NC(=O)[C@@](C)(NC(=O)C(C)C)CCCCCCCNC1=O [Compound 34c]

# Same assay, conditions: FP competitive binding; WDR5Δ23 4 nM, tracer 0.6 nM, five hours incubation; first cyclic series (Table 1); read-out: IC50, binding affinity to WDR5
row,IC50 [nM],SMILES
1,> 100000,CCC1(CC)NC(=O)CCCCCCCN(C(C)=O)C[C@H](CCCNC(=N)N)NC1=O [Compound 14]
2,> 100000,CCC1(CC)NC(=O)CCCCCNC(=O)[C@H](CCCNC(=N)N)NC1=O [Compound 4b]
3,> 100000,CCC1(CC)NC(=O)CCCCCCNC(=O)[C@H](CCCNC(=N)N)NC1=O [Compound 4c]
4,> 100000,CCC1(CC)NC(=O)CCCCCCCNC[C@H](CCCNC(=N)N)NC1=O [Compound 15]
5,> 1000,CCC1(CC)NC(=O)CCCCCCCCNC(=O)[C@H](CCCNC(=N)N)NC1=O [Compound 4e]
6,> 100000,CCC1(CC)NC(=O)CCCCNC(=O)[C@H](CCCNC(=N)N)NC1=O [Compound 4a]
7,> 1000,CCC1(CC)NC(=O)CCCCCCCNC(=O)[C@H](CCCNC(=N)N)NC1=O [Compound 4d]
